# Target: T1, Polyunsaturated fatty acid 5-lipoxygenase (Homo sapiens, UniProt P09917)
# T1 sequence (P09917 whole entry): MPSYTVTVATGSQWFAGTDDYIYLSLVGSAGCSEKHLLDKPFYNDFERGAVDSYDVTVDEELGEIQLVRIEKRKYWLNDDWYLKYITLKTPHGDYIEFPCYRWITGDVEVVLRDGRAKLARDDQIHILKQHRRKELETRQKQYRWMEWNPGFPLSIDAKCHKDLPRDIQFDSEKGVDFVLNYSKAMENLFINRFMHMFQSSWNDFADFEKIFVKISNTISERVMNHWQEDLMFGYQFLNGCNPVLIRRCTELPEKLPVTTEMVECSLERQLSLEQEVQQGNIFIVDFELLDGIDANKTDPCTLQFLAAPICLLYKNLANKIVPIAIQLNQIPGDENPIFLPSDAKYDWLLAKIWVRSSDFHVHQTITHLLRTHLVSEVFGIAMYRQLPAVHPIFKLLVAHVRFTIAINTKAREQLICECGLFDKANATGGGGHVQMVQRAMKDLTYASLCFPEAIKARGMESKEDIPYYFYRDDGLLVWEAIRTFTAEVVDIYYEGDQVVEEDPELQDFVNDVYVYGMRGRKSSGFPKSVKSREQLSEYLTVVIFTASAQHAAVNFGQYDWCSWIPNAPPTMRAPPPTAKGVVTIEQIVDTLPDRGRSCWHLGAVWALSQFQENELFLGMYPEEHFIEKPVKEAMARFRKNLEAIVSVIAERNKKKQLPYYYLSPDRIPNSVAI
# Assay: Determination of 5-LO Product Formation in Intact Cells (EC50/IC50)
# Conditions: pH 7.4; 37 °C
# Procedure: For assays of intact cells, 5000,000 freshly isolated PMNL cells were resuspended in PGC buffer. After preincubation with the test compounds for 15 min at RT, 5-LO product formation was started by addition of ionophore A23187 plus arachidonic acid. Formed 5-LO metabolites were extracted and analyzed by HPLC. 5-LO product formation is expressed as ng of 5-LO products per 1000,000 cells, which includes LTB4 and its all-trans isomers, and 5(S)-hydro(pero)xy-6-trans- 8,11,14-cis-eicosatetraenoic acid.
row,SMILES,EC50 [µM]
1,"CCCCCCC(Sc1nc(Cl)cc(Nc2cccc(C)c2C)n1)C(=O)O (stereo not given) [2-({4-chloro-6-[(2,3-dimethylphenyl)amino]pyrimidin-2-yl}sulfanyl)octanoic acid]",4.1
2,"O=C(O)CSc1nc(Cl)cc(Nc2cccc3c2CCC3)n1 [2-{[4-chloro-6-(2,3-dihydro-1H-inden-4-ylamino)pyrimidin-2-yl]sulfanyl}acetic acid]",3.9
3,"CCOC(=O)C(Sc1nc(Cl)cc(Nc2cccc(C)c2C)n1)c1ccccc1 (stereo not given) [ethyl 2-({4-chloro-6-[(2,3-dimethylphenyl)amino]pyrimidin-2-yl}sulfanyl)-2-phenylacetate]",1.8
4,"CCOC(=O)CSc1nc(Cl)cc(Nc2cccc3c2CCC3)n1 [ethyl 2-{[4-chloro-6-(2,3-dihydro-1H-inden-4-ylamino)pyrimidin-2-yl]sulfanyl}acetate]",3.2
5,CCOC(=O)C(Sc1nc(Cl)cc(Nc2ccc3ncccc3c2)n1)c1ccccc1 (stereo not given) [ethyl 2-{[4-chloro-6-(quinolin-6-ylamino)pyrimidin-2-yl]sulfanyl}-2-phenylacetate],1.2
6,CCOC(=O)CSc1nc(Cl)cc(Nc2ccc3ncccc3c2)n1 [ethyl 2-{[4-chloro-6-(quinolin-6-ylamino)pyrimidin-2-yl]sulfanyl}acetate],2.6
7,CCCCC(Sc1nc(Cl)cc(Nc2ccc3ncccc3c2)n1)C(=O)OCC (stereo not given) [ethyl 2-{[4-chloro-6-(quinolin-6-ylamino)pyrimidin-2-yl]sulfanyl}hexanoate],1.1
8,CCCCCCC(Sc1nc(Cl)cc(Oc2ccc3ncccc3c2)n1)C(=O)OCC (stereo not given) [ethyl 2-{[4-chloro-6-(quinolin-6-yloxy)pyrimidin-2-yl]sulfanyl}octanoate],1.7

# Target: T1, Polyunsaturated fatty acid 5-lipoxygenase
# Assay: Determination of 5-LO Product Formation in Cell-Free Systems (IC50).
# Conditions: pH 7.4; 37 °C
# Procedure: For determination of the activity of 5-LO in 100000g supernatants, aliquots of the supernatants were added to reaction mix, and were preincubated with the test compounds before arachidonic acid was added to start 5-LO product formation. Formed 5-LO metabolites were extracted and analyzed by HPLC. 5-LO product includes LTB4 and its all-trans isomers, and 5(S)-hydro(pero)xy-6-trans- 8,11,14-cis-eicosatetraenoic acid. IC50s are expressed as mean +/- SE, obtained from measurements at 4-5 different concentrations of test compounds, and determined using Graphpad Instat (Graphpad Software Inc., San Diego, CA). EC50/IC50 values were obtained from product formation in PMNL intact cells.
row,SMILES,EC50 [µM]
1,CCCCCCC(Sc1nc(Cl)cc(NCc2ccc3ncccc3c2)n1)C(=O)OCC (stereo not given) [ethyl 2-({4-chloro-6-[(quinolin-6-ylmethyl)amino]pyrimidin-2-yl}sulfanyl)octanoate],37
2,CCCCCCC(Sc1nc(Cl)cc(Nc2ccc3ncccc3c2)n1)C(=O)OCC (stereo not given) [ethyl 2-{[4-chloro-6-(quinolin-6-ylamino)pyrimidin-2-yl]sulfanyl}octanoate],19

# Reference: BindingDB's records for doi:10.1021/jm800588x (Eberhard Karls University Tuebingen, 2008)
